What follows are compounds tested against endogenous cellular BACE2 in the Ins1e rat cell line (Rattus norvegicus (Rat), UniProt Q6IE75) (assay: Assay for BACE inhibition by measuring cellular TMEM27 cleavage (ELISA of shed hTMEM27 from INS-TMEM27 cells)). Settings: assay a): cellular TMEM27 cleavage, INS-TMEM27 cells (superscript a).
Format: cell-based
Source text: a) Assay for BACE Inhibition by Measuring Cellular TMEM27 Cleavage:
The assay uses the principle of inhibition of human TMEM27 cleavage by endogenous cellular BACE2 in the Ins1e rat cell line and shedding from the cell surface into the culture medium, followed by detection in an ELISA assay. Inhibition of BACE2 prevents the cleavage and shedding in a dose-dependent manner.
The stable cell line “INS-TMEM27” represents an INS1e-derived cell line with inducible expression (using the TetOn system) of full-length hTMEM27 in a doxycycline-dependent manner. The cells are cultured throughout the experiment in RPMI1640+Glutamax (Invitrogen) Penicillin/Streptomycin, 10% Fetal bovine serum, […], […], 100 micrograms/ml G418 and 100 microgram/ml hygromycin and are grown inadherent culture at 37° C. in a standard CO2 cell culture incubator.
INS-TMEM27 cells are seeded in 96-well plates. After 2 days in culture, BACE2 inhibitor is added in a range of concentrations as required by the assay and after a further two hours, doxycycline is added to a final concentration of 500 ng/ml. The cells are incubated for a further 46 hours and the supernatant harvested for detection of shed TMEM27.
An ELISA assay (using a pair of mouse anti-human-TMEM27 antibodies, raised against the extracellular domain of TMEM27) is used for detection of TMEM27 in the culture medium. An EC50 for BACE2 inhibition is calculated using the ELISA readout for each inhibitor concentration with standard curve-fitting software such as XLFit for the Excel spreadsheet program.

Sequence of endogenous cellular BACE2 in the Ins1e rat cell line (Q6IE75 63-514): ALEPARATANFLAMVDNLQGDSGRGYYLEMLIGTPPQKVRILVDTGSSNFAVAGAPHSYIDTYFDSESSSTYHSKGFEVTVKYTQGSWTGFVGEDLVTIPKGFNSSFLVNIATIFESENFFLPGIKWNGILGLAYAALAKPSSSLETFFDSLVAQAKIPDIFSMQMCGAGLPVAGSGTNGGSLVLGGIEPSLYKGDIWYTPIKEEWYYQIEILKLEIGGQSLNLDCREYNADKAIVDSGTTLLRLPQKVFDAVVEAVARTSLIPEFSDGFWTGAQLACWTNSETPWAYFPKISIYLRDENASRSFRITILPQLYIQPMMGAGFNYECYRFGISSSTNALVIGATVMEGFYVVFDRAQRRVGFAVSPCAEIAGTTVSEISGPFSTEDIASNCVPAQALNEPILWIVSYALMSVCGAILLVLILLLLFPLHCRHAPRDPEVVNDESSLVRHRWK

SMILES | IC50 [nM]
CN1C(=O)C(C)(C)[C@@](C)(c2cc(NC3CCc4cc(Cl)ccc43)ccc2F)N=C1N (stereo partly drawn) [Example 29, (S)-2-Amino-6-[5-(5-chloro-indan-1-ylamino)-2-fluoro-phenyl]-3,5,5,6-tetramethyl-5,6-dihydro-3H-pyrimidin-4-one] | 32
CN1C(=O)C(C)(C)[C@@](C)(c2cc(NC3CCCC3Cl)ccc2F)N=C1N (stereo partly drawn) [Example 30, (6S)-2-Amino-6-(5-(2-chlorocyclopentylamino)-2-fluorophenyl)-3,5,5,6-tetramethyl-5,6-dihydropyrimidin-4(3H)-one] | 33
CN1C(=O)C(C)(C)[C@@](C)(c2cc(NC3CCN(c4ccc(F)cc4)C3)ccc2F)N=C1N (stereo partly drawn) [Example 31, (6S)-2-Amino-6-(2-fluoro-5-(1-(4-fluorophenyl)pyrrolidin-3-ylamino)phenyl)-3,5,5,6-tetramethyl-5,6-dihydropyrimidin-4(3H)-one] | 37
CN1C(=O)C(C)(C)[C@@](C)(c2cc(NC3CCN(Cc4ccccc4)C3)ccc2F)N=C1N (stereo partly drawn) [Example 32, (6S)-2-Amino-6-(5-(1-benzylpyrrolidin-3-ylamino)-2-fluorophenyl)-3,5,5,6-tetramethyl-5,6-dihydropyrimidin-4(3H)-one] | 32
CN1C(=O)C(C)(C)[C@@](C)(c2cc(NC3CCC(c4ccccc4)C3)ccc2F)N=C1N (stereo partly drawn) [Example 33, (6S)-2-Amino-6-(2-fluoro-5-(3-phenylcyclopentylamino)phenyl)-3,5,5,6-tetramethyl-5,6-dihydropyrimidin-4(3H)-one] | 29
CC1OCCC1Nc1ccc(F)c([C@@]2(C)N=C(N)N(C)C(=O)C2(C)C)c1 (stereo partly drawn) [Example 34, (6S)-2-Amino-6-(2-fluoro-5-(2-methyltetrahydrofuran-3-ylamino)phenyl)-3,5,5,6-tetramethyl-5,6-dihydropyrimidin-4(3H)-one] | 8
CN1C(=O)C(C)(C)[C@@](C)(c2cc(NC3CCc4cc(F)ccc43)ccc2F)N=C1N (stereo partly drawn) [Example 35, (6S)-2-Amino-6-(2-fluoro-5-(5-fluoro-2,3-dihydro-1H-inden-1-ylamino)phenyl)-3,5,5,6-tetramethyl-5,6-dihydropyrimidin-4(3H)-one] | 84
CN1C(=O)C(C)(C)[C@@](C)(c2cc(Nc3ccnn3C)ccc2F)N=C1N [Example 36, (S)-2-Amino-6-[2-fluoro-5-(2-methyl-2H-pyrazol-3-ylamino)-phenyl]-3,5,5,6-tetramethyl-5,6-dihydro-3H-pyrimidin-4-one] | 535
CC(Nc1ccc(F)c([C@@]2(C)N=C(N)N(C)C(=O)C2(C)C)c1)C1CC1 (stereo partly drawn) [Example 37, (S)-2-Amino-6-[5-(1-cyclopropyl-ethylamino)-2-fluoro-phenyl]-3,5,5,6-tetramethyl-5,6-dihydro-3H-pyrimidin-4-one] | 39
CC(Nc1ccc(F)c([C@@]2(C)N=C(N)N(C)C(=O)C2(C)C)c1)c1ccccc1 (stereo partly drawn) [Example 38, (S)-2-Amino-6-[2-fluoro-5-(1-phenyl-ethylamino)-phenyl]-3,5,5,6-tetramethyl-5,6-dihydro-3H-pyrimidin-4-one] | 48

Further lines, results first:

IC50 [nM] | SMILES
234 | Cc1cc(Nc2ccc(F)c([C@@]3(C)N=C(N)N(C)C(=O)C3(C)C)c2)n(C)n1 [Example 39, (S)-2-Amino-6-[5-(2,5-dimethyl-2H-pyrazol-3-ylamino)-2-fluoro-phenyl]-3,5,5,6-tetramethyl-5,6-dihydro-3H-pyrimidin-4-one]
21 | CC(Nc1ccc(F)c([C@@]2(C)N=C(N)N(C)C(=O)C2(C)C)c1)c1ccccn1 (some centres unmarked) [Example 40]
426 | CN1C(=O)C(C)(C)[C@@](C)(c2cc(NC3CCC(C(F)(F)F)CC3)ccc2F)N=C1N (stereo partly drawn) [Example 41, (S)-2-amino-6-(2-fluoro-5-(4-(trifluoromethyl)cyclohexylamino)phenyl)-3,5,5,6-tetramethyl-5,6-dihydropyrimidin-4(3H)-one]
211 | CC(Cc1ccc(F)cc1)Nc1ccc(F)c([C@@]2(C)N=C(N)N(C)C(=O)C2(C)C)c1 (stereo partly drawn) [Example 42, (S)-2-Amino-6-{2-fluoro-5-[2-(4-fluoro-phenyl)-1-methyl-ethylamino]-phenyl}-3,5,5,6-tetramethyl-5,6-dihydro-3H-pyrimidin-4-one]

From patent US8815881B2 (Hoffmann-La Roche Inc., priority 2010, dated 2014)
